Measured values published in ChEMBL document CHEMBL4190307, “Design, synthesis and biological evaluation of novel coumarin-N-benzyl pyridinium hybrids as multi-target agents for the treatment of Alzheimer's disease” (Eur J Med Chem, 2017).
Activity calls are given as the source filed them. No cut-off for these calls is given here.

What was measured:
[1] = Selectivity index, ratio of IC50 for equine serum BuChE to IC50 for electric eel AChE
[2] = target: Amyloid-beta precursor protein (Homo sapiens) (UniProt P05067); test: Inhibition of self-induced amyloid beta (1 to 42) (unknown origin) aggregation at 20 uM after 46 to 48 hrs by thioflavin T-based fluorescence assay relative to control
Acetylcholinesterase [3] = target: Acetylcholinesterase (Electrophorus electricus, UniProt O42275); test: Inhibition of electric eel AChE using acetylthiocholine iodide as substrate preincubated for 6 mins followed by substrate addition measured up to 180 secs by Ellman's method
[4] = target: T1, Amine oxidase [flavin-containing] B (Homo sapiens, UniProt P27338)
T1 sequence (P27338 whole entry): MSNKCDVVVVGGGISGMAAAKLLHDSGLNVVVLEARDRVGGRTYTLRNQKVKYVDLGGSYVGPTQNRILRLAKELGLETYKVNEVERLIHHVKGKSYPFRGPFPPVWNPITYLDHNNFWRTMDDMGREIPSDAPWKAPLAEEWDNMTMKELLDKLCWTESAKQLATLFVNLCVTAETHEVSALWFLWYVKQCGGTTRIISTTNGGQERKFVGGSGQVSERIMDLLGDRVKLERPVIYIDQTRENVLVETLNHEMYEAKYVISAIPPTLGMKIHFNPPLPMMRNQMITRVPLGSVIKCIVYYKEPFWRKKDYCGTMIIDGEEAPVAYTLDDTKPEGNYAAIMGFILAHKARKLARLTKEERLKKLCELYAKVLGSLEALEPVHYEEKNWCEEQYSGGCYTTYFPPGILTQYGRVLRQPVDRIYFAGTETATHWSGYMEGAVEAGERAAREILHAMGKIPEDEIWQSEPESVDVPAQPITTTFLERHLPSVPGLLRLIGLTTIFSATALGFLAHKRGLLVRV
Description: Inhibition of recombinant human MAOB using p-tyramine as substrate after 15 mins by Amplex Red dye-based fluorometric method

Cholinesterase [5] = target: Cholinesterase (Equus caballus, UniProt P81908); test: Inhibition of equine serum BuChE using S-butyrylthiocholine iodide as substrate preincubated for 6 mins followed by substrate addition measured up to 180 secs by Ellman's method
Homo sapiens [6] = species on record: Homo sapiens; test: Selectivity index, ratio of IC50 for recombinant human MAOA to IC50 for recombinant human MAOB
Homo sapiens [7] = species on record: Homo sapiens; test: Selectivity index, ratio of IC50 for human serum BuChE to IC50 for human AChE
[8] = target: T2, Amine oxidase [flavin-containing] A (Homo sapiens, UniProt P21397); test: Inhibition of recombinant human MAOA at 10 uM using p-tyramine as substrate after 15 mins by resorufin dye-based fluorometric method relative to control; settings: 0.25 h
T2 sequence (P21397 whole entry): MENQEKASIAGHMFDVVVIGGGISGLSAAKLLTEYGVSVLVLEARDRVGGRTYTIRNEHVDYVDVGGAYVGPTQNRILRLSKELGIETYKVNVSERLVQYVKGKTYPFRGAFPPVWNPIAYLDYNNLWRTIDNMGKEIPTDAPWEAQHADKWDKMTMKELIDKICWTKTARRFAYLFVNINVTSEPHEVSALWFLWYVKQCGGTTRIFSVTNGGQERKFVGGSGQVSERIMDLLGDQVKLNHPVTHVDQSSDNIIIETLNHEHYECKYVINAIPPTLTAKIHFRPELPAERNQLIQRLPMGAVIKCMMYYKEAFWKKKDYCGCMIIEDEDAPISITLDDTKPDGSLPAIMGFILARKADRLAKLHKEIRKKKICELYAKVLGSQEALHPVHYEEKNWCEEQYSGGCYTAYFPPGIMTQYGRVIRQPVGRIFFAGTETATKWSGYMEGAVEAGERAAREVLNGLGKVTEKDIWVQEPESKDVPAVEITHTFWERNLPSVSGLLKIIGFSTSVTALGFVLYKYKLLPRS

PC-12 = test: Cytotoxicity against rat PC12 cells assessed as reduction in cell viability at 100 uM after 24 hrs by MTT assay relative to control; type: cell-based; settings: pc-12, 24 h
Acetylcholinesterase [9] = target: Acetylcholinesterase (Homo sapiens, UniProt P22303); test: Inhibition of human AChE using acetylthiocholine iodide as substrate preincubated for 6 mins followed by substrate addition measured up to 180 secs by Ellman's method
[10] = target: T2, Amine oxidase [flavin-containing] A; test: Inhibition of recombinant human MAOA using p-tyramine as substrate after 15 mins by Amplex Red dye-based fluorometric method
[11] = target: Acetylcholinesterase (Electrophorus electricus) (UniProt O42275); test: Mixed type inhibition of electric eel AChE up to 80 nM using acetylthiocholine iodide as substrate preincubated for 6 mins followed by substrate addition measured up to 180 secs by Lineweaver-burk plot method
[12] = target: T1, Amine oxidase [flavin-containing] B; test: Reversible inhibition of recombinant human MAO-B assessed as enzyme activity recovery at 10 times IC50 using p-tyramine as substrate preincubated for 30 mins followed by 100 fold compound dilution by Amplex Red dye-based fluorometric method relative to control; design: scale not given: the % may be the effect or the level left
[13] = target: T1, Amine oxidase [flavin-containing] B; test: Reversible inhibition of recombinant human MAO-B assessed as enzyme activity recovery at 100 times IC50 using p-tyramine as substrate preincubated for 30 mins followed by 100 fold compound dilution by Amplex Red dye-based fluorometric method relative to control; design: scale not given: the % may be the effect or the level left
[14] = target: T1, Amine oxidase [flavin-containing] B; test: Competitive inhibition of recombinant human MAOB up to 3 uM using p-tyramine as substrate after 15 mins by Lineweaver-burk plot method; settings: 0.25 h
[15] = target: Acetylcholinesterase (Electrophorus electricus) (UniProt O42275); test: Potency index, ratio of IC50 for donepezil to IC50 for test compound for inhibition of electric eel AChE using acetylthiocholine iodide as substrate preincubated for 6 mins followed by substrate addition measured up to 180 secs by Ellman's method
[16] = target: T1, Amine oxidase [flavin-containing] B; test: Inhibition of recombinant human MAOB at 10 uM using p-tyramine as substrate after 15 mins by resorufin dye-based fluorometric method relative to control; settings: 0.25 h
Cholinesterase [17] = target: Cholinesterase (Homo sapiens, UniProt P06276)
Sequence of Cholinesterase (Homo sapiens, UniProt P06276) (P06276 whole entry): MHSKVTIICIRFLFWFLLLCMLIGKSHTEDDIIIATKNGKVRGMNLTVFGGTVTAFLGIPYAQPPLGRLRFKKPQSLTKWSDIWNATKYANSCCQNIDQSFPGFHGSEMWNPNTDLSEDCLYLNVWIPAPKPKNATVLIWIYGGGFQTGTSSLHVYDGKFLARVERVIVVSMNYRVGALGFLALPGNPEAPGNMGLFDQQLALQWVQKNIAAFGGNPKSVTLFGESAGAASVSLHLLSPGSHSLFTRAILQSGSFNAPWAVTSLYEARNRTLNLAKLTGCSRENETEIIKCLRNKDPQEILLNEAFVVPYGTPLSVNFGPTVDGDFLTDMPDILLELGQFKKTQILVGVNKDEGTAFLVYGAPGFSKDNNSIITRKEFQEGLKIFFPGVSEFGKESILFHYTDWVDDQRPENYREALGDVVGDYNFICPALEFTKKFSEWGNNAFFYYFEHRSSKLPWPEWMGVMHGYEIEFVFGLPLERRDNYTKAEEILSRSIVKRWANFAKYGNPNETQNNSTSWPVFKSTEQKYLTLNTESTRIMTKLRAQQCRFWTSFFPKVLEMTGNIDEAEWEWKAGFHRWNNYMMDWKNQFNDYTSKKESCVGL
Description: Inhibition of human serum BuChE using S-butyrylthiocholine iodide as substrate preincubated for 6 mins followed by substrate addition measured up to 180 secs by Ellman's method

Sequence of Acetylcholinesterase (Homo sapiens, UniProt P22303) (P22303 whole entry): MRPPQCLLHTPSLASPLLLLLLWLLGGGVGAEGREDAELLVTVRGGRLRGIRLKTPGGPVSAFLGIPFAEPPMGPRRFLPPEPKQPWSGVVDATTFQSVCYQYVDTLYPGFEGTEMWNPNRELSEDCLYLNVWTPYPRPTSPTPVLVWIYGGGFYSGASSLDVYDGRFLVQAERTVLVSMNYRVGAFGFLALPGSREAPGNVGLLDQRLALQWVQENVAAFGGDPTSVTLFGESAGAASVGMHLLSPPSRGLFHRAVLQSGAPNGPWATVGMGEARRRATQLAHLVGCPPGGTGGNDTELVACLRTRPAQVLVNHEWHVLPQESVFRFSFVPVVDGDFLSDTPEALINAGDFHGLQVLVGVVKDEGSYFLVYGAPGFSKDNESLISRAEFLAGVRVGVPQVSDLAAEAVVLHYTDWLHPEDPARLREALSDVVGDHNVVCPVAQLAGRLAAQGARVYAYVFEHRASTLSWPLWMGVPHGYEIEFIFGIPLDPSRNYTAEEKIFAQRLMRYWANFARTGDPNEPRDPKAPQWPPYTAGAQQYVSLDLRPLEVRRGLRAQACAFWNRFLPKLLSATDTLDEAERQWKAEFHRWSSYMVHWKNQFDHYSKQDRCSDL
Sequence of Amyloid-beta precursor protein (Homo sapiens) (P05067 whole entry): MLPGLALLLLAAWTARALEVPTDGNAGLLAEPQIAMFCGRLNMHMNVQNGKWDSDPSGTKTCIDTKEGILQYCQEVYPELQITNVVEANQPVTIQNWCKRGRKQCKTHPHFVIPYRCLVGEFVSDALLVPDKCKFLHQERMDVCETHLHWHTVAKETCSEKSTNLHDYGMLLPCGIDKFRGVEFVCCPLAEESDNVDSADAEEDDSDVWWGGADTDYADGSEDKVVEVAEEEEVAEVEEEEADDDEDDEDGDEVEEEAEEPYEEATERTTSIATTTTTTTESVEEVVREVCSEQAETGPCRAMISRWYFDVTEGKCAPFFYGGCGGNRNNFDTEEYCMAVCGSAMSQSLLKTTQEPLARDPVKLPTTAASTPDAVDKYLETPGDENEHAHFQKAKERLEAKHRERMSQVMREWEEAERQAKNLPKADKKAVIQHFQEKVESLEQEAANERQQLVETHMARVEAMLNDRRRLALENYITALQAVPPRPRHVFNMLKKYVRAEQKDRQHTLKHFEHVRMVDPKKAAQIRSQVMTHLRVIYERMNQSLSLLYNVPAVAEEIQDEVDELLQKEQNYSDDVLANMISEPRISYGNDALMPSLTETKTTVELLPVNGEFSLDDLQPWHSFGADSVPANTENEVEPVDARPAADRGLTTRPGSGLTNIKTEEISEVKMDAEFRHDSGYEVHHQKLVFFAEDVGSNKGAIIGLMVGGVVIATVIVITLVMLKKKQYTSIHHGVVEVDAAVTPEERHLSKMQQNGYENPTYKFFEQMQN
Sequence of Cholinesterase (Equus caballus, UniProt P81908) (P81908 whole entry): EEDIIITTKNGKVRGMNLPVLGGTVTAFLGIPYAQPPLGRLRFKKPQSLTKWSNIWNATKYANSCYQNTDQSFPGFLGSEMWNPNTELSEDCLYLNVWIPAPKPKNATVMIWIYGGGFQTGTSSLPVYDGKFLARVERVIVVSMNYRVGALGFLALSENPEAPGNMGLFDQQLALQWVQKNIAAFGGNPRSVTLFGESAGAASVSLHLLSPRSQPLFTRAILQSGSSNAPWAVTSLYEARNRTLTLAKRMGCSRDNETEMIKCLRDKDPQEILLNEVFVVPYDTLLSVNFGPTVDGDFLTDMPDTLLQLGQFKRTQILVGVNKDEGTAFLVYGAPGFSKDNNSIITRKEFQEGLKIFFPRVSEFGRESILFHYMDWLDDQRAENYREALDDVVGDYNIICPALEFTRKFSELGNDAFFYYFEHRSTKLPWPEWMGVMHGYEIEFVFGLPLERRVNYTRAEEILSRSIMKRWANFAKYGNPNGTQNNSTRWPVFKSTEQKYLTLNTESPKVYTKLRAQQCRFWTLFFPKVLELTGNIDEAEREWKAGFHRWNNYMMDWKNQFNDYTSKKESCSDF
Sequence of Acetylcholinesterase (Electrophorus electricus, UniProt O42275) (O42275 whole entry): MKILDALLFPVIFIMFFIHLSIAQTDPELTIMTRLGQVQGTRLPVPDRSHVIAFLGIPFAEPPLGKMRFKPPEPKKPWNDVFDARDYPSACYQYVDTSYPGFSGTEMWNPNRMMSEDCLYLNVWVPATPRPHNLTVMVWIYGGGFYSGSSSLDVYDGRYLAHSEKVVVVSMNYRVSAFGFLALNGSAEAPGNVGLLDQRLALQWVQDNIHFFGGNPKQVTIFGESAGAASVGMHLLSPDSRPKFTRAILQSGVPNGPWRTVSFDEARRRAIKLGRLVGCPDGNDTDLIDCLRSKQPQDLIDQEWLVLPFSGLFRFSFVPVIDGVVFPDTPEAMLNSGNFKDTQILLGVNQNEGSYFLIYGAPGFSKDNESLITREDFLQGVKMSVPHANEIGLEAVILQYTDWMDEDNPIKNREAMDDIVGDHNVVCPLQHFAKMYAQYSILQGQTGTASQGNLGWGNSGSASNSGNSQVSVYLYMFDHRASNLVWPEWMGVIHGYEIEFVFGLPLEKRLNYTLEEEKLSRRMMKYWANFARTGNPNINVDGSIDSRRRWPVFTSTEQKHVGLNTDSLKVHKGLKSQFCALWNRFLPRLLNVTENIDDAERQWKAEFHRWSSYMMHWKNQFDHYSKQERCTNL
Sequence of Acetylcholinesterase (Electrophorus electricus) (O42275 24-633 limits assumed): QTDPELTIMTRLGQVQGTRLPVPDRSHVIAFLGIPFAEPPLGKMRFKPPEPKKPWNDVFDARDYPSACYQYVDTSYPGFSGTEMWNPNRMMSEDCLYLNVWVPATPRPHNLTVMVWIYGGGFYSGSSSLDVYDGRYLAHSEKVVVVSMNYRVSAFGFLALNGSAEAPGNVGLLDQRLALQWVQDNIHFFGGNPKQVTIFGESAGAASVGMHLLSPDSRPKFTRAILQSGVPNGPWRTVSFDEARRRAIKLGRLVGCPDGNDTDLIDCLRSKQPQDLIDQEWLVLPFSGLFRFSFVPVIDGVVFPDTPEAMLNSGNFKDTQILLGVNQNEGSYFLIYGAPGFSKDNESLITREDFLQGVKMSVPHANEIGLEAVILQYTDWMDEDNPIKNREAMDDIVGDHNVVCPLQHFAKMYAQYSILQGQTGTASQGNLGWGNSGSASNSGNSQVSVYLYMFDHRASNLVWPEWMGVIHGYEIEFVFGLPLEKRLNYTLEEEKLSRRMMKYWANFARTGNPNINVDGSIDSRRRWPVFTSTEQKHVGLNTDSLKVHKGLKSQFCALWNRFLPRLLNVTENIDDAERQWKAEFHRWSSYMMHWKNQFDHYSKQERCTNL

Cc1cc(=O)oc2cc(OCc3cc[n+](Cc4ccccc4F)cc3)ccc12.[Br-]
Ratio IC50 [1]: 55.6
inhibition [2]: 53.7%
IC50 (Acetylcholinesterase [3]): 0.0295 µM
IC50 [4]: 4.21 µM
IC50 (Cholinesterase [5]): 1.64 µM
Ratio IC50 (Homo sapiens [6]): > 2.37
Ratio IC50 (Homo sapiens [7]): > 153
inhibition at 10 µM [8]: 11.5%
Activity (PC-12): 100.8%
IC50 (Acetylcholinesterase [9]): 0.0653 µM

Cc1cc(=O)oc2cc(OCc3cc[n+](Cc4ccc(Br)cc4)cc3)ccc12.[Br-]
Ratio IC50 [1]: 41.1
inhibition [2]: 67.6%
IC50 (Acetylcholinesterase [3]): 0.119 µM
IC50 [4]: 3.88 µM
IC50 (Cholinesterase [5]): 4.89 µM
Ratio IC50 (Homo sapiens [6]): > 2.58
Ratio IC50 (Homo sapiens [7]): > 41.1
inhibition at 10 µM [8]: 29.9%
Activity (PC-12): 98.5%
IC50 (Acetylcholinesterase [9]): 0.218 µM

Cc1cc(=O)oc2cc(OCc3cc[n+](Cc4ccc(F)cc4)cc3)ccc12.[Br-]
Ratio IC50 [1]: 101
inhibition [2]: 49.1%
IC50 (Acetylcholinesterase [3]): 0.0291 µM
IC50 [10]: 4.6 µM
IC50 [4]: 10 µM
IC50 (Cholinesterase [5]): 2.95 µM
Ratio IC50 (Homo sapiens [6]): 0.46
Ratio IC50 (Homo sapiens [7]): > 271
Activity (PC-12): 94.8%
IC50 (Acetylcholinesterase [9]): 0.0369 µM

Cc1cccc(C[n+]2ccc(COc3ccc4c(C)cc(=O)oc4c3)cc2)c1.[Br-]
Ratio IC50 [1]: 62.2
inhibition [11]: Active
inhibition [2]: 62.1%
IC50 (Acetylcholinesterase [3]): 0.0373 µM
IC50 [4]: 1.57 µM
IC50 (Cholinesterase [5]): 2.32 µM
Activity [12]: 86%
Activity [13]: 47%
inhibition (INH) [14]: Active
Ratio IC50 (Homo sapiens [6]): > 6.37
Ratio IC50 (Homo sapiens [7]): > 120
inhibition at 10 µM [8]: 14.8%
Activity (PC-12): 101.5%
IC50 (Acetylcholinesterase [9]): 0.0836 µM

Cc1ccccc1C[n+]1ccc(COc2ccc3c(C)cc(=O)oc3c2)cc1.[Br-]
Ratio IC50 [1]: 64.7
inhibition [2]: 55.2%
IC50 (Acetylcholinesterase [3]): 0.0249 µM
IC50 [4]: 3.16 µM
IC50 (Cholinesterase [5]): 1.61 µM
Ratio IC50 (Homo sapiens [6]): > 3.16
Ratio IC50 (Homo sapiens [7]): > 282
inhibition at 10 µM [8]: 13.9%
Activity (PC-12): 97.1%
IC50 (Acetylcholinesterase [9]): 0.0354 µM
Ratio IC50 [15]: 1.9

Cc1ccc(C[n+]2ccc(COc3ccc4c(C)cc(=O)oc4c3)cc2)cc1.[Br-]
Ratio IC50 [1]: 56.3
inhibition [2]: 58.5%
IC50 (Acetylcholinesterase [3]): 0.136 µM
IC50 [4]: 3.9 µM
IC50 (Cholinesterase [5]): 7.66 µM
Ratio IC50 (Homo sapiens [6]): > 2.56
Ratio IC50 (Homo sapiens [7]): > 40
inhibition at 10 µM [8]: 9.05%
Activity (PC-12): 99.4%
IC50 (Acetylcholinesterase [9]): 0.25 µM

Cc1cc(=O)oc2cc(OCc3cc[n+](Cc4cccc(Br)c4)cc3)ccc12.[Br-]
Ratio IC50 [1]: 69.8
inhibition [2]: 62.7%
IC50 (Acetylcholinesterase [3]): 0.0632 µM
IC50 [4]: 2.19 µM
IC50 (Cholinesterase [5]): 4.41 µM
Ratio IC50 (Homo sapiens [6]): > 4.56
Ratio IC50 (Homo sapiens [7]): > 77.8
inhibition at 10 µM [8]: 44.6%
Activity (PC-12): 96.8%
IC50 (Acetylcholinesterase [9]): 0.129 µM

Cc1cc(=O)oc2cc(OCc3cc[n+](Cc4cccc(F)c4)cc3)ccc12.[Br-]
Ratio IC50 [1]: 106
inhibition [2]: 50.8%
IC50 (Acetylcholinesterase [3]): 0.0259 µM
IC50 [4]: 2.87 µM
IC50 (Cholinesterase [5]): 2.74 µM
Ratio IC50 (Homo sapiens [6]): > 3.48
Ratio IC50 (Homo sapiens [7]): > 240
inhibition at 10 µM [8]: 34.3%
Activity (PC-12): 99.6%
IC50 (Acetylcholinesterase [9]): 0.0416 µM
Ratio IC50 [15]: 1.9

Cc1cc(=O)oc2cc(OCc3cc[n+](Cc4cccc([N+](=O)[O-])c4)cc3)ccc12.[Br-]
inhibition [2]: 42.8%
IC50 (Acetylcholinesterase [3]): 0.0383 µM
IC50 (Cholinesterase [5]): 4.37 µM
Activity (PC-12): 98.4%
IC50 (Acetylcholinesterase [9]): 0.23 µM

Cc1cc(=O)oc2cc(OCc3cc[n+](Cc4ccccc4)cc3)ccc12.[Br-]
inhibition at 10 µM [16]: 34.9%
Ratio IC50 [1]: 11.2
inhibition [2]: 39.3%
IC50 (Acetylcholinesterase [3]): 0.38 µM
IC50 (Cholinesterase [5]): 4.24 µM
Ratio IC50 (Homo sapiens [6]): 6.92
Ratio IC50 (Homo sapiens [7]): > 28.4
inhibition at 10 µM [8]: 5.04%
Activity (PC-12): 97.5%
IC50 (Acetylcholinesterase [9]): 0.352 µM

Cc1cc(=O)oc2cc(O)ccc12 [HYMECROMONE]
IC50 (Acetylcholinesterase [3]): > 100 µM
IC50 (Cholinesterase [5]): > 100 µM

Cc1cc(=O)oc2cc(OCc3cc[n+](Cc4ccccc4Br)cc3)ccc12.[Br-]
Ratio IC50 [1]: 13.2
inhibition [2]: 63.7%
IC50 (Acetylcholinesterase [3]): 0.0367 µM
IC50 [4]: 3.99 µM
IC50 (Cholinesterase [5]): 0.48 µM
IC50 (Cholinesterase [17]): 8.32 µM
Ratio IC50 (Homo sapiens [6]): > 2.5
Ratio IC50 (Homo sapiens [7]): 106
inhibition at 10 µM [8]: 15.1%
Activity (PC-12): 97.6%
IC50 (Acetylcholinesterase [9]): 0.0781 µM

Cc1cc(=O)oc2cc(OCc3cc[n+](Cc4ccc([N+](=O)[O-])cc4)cc3)ccc12.[Br-]
Ratio IC50 [1]: > 8.4
inhibition [2]: 37.7%
IC50 (Acetylcholinesterase [3]): 1.19 µM
IC50 [4]: 6.89 µM
Ratio IC50 (Homo sapiens [6]): > 1.45
Ratio IC50 (Homo sapiens [7]): > 9.3
inhibition at 10 µM [8]: 18.6%
Activity (PC-12): 99.5%
IC50 (Acetylcholinesterase [9]): 1.08 µM
